Measurements as given in patent US7915291B2, “Hepatitis C virus inhibitors” (Bristol-Myers Squibb Company, priority 2002, dated 2011).
pEC50, pIC50: −log10 of the molar value. Where two headings read alike, the source gives them in different places.

Columns and labels:
[1] = biological target: HCV NS3/4A protease complex, BMS strain (UniProt P27958, C1454S/C1711G, species not given/STRAIN_BMS); experiment: Recombinant HCV NS3/4A protease complex FRET peptide assay (BMS strain); format: biochemical, HCV genotype 1a
Description: Recombinant HCV NS3/4A Protease Complex FRET Peptide Assay
The purpose of this in vitro assay was to measure the inhibition of HCV NS3 protease complexes, derived from the BMS, H77C or J416S strains, as described below, by compounds of the present invention.
Serum from an HCV-infected patient was obtained from Dr. T. Wright, San Francisco Hospital. An engineered full-length cDNA (compliment deoxyribonucleic acid) template of the HCV genome (BMS strain) was constructed from DNA fragments obtained by reverse transcription-PCR(RT-PCR) of serum RNA (ribonucleic acid) and using primers selected on the basis of homology between other genotype 1a strains.
The BMS, H77C and J4L6S strains were used for production of recombinant NS3/4A protease complexes. […] Briefly, a three-lysine solubilizing tail was added at the 3′-end of the NS4A coding region. […] Briefly, NS3/4A expression was induced with 0.5 mM Isopropyl β-D-1-thiogalactopyranoside (IPTG) for 22 hr at 20° C. […] The crude protein extract was loaded on a Nickel—Nitrilotriacetic acid (Ni-NTA) column pre-equilibrated with buffer B (25 mM HEPES, pH8.0, 20% glycerol, 500 mM NaCl, 0.5% Triton-X100, 15 mM imidazole, 5 mM βME). The sample was loaded at a flow rate of 1 mL/min. The column was washed with 15 column volumes of buffer C (same as buffer B except with 0.2% Triton-X100). The protein was eluted with 5 column volumes of buffer D (same as buffer C except with 200 mM Imidazole).
NS3/4A protease complex-containing fractions were pooled and loaded on a desalting column Superdex-S200 pre-equilibrated with buffer D (25 mM HEPES, pH7.5, 20% glycerol, 300 mM NaCl, 0.2% Triton-X100, 10 mM βME). Sample was loaded at a flow rate of 1 mL/min. NS3/4A protease complex-containing fractions were pooled and concentrated to approximately 0.5 mg/ml.
The enzyme was stored at −80° C., thawed on ice and diluted prior to use in assay buffer. […] The sequence of this peptide is loosely based on the NS4A/NS4B natural cleavage site except there is an ester linkage rather than an amide bond at the cleavage site. The peptide substrate was incubated with one of the three recombinant NS3/4A complexes, in the absence or presence of a compound of the present invention, and the formation of fluorescent reaction product was followed in real time using a Cytofluor Series 4000.
The reagents were as follow: HEPES and Glycerol (Ultrapure) were obtained from GIBCO-BRL. Dimethyl Sulfoxide (DMSO) was obtained from Sigma. β-Mercaptoethanol was obtained from Bio Rad.
Substrate: 2 μM final concentration (from a 2 mM stock solution in DMSO stored at −20° C.). HCV NS3/4A type 1a (1b), 2-3 nM final concentration (from a 5 μM stock solution in 25 mM HEPES, pH7.5, 20% glycerol, 300 mM NaCl, 0.2% Triton-X100, 10 mM βME).
The assay was performed in a 96-well polystyrene black plate from Falcon. Each well contained 25 μl NS3/4A protease complex in assay buffer, 50 μof a compound of the present invention in 10% DMSO/assay buffer and 25 μl substrate in assay buffer. A control (no compound) was also prepared on the same assay plate. The enzyme complex was mixed with compound or control solution for 1 min before initiating the enzymatic reaction by the addition of substrate. The assay plate was read immediately using the Cytofluor Series 4000 (Perspective Biosystems). The instrument was set to read an […] at 25° C. Reactions were generally followed for approximately 15 minutes.
The percent inhibition was calculated with the following equation: 100−[(δFinh/δFcon)×100] where δF is the change in fluorescence over the linear range of the curve.

[2] = test system: HCV replicon in Huh7 cells; experiment: HCV replicon cell-based assay; set-up: species or system HCV strain 1B; settings: Hepatitis C virus
Description: HCV Replicon Cell-based Assay
This system enabled us to evaluate the effects of our HCV Protease compounds on HCV RNA replication. Briefly, using the HCV strain 1B sequence described in the Lohmann paper (Assession number:AJ238799), an HCV cDNA was generated encoding the 5′ internal ribosome entry site (IRES), the neomycin resistance gene, the EMCV (encephalomyocarditis virus)-IRES and the HCV nonstructural proteins, NS3-NS5B, and 3′ non-translated region (NTR). In vitro transcripts of the cDNA were transfected into the human hepatoma cell line, Huh7. […] Resulting cell lines were characterized for positive and negative strand RNA production and protein production over time.
Huh7 cells, constitutively expressing the HCV replicon, were grown in Dulbecco's Modified Eagle Media (DMEM) containing 10% Fetal calf serum (FCS) and 1 mg/ml G418 (Gibco-BRL). Cells were seeded the night before (1.5×10^4 cells/well) in 96-well tissue-culture sterile plates. Compound and no compound controls were prepared in DMEM containing 4% FCS, 1:100 Penicillin/Streptomysin, 1:100 L-glutamine and 5% DMSO in the dilution plate (0.5% DMSO final concentration in the assay). Compound/DMSO mixes were added to the cells and incubated for 4 days at 37° C. After 4 days, plates were rinsed thoroughly with Phosphate-Buffered Saline (PBS) (3 times 150 μl). The cells were lysed with 25 μl of a lysis assay reagent containing the FRET peptide (RET S1, as described for the in vitro enzyme assay). The lysis assay reagent was made from 5× cell Luciferase cell culture lysis reagent(Promega #E153A) diluted to 1× with distilled water, NaCl added to 150 mM final, the FRET peptide diluted to 10 μM final from a 2 mM stock in 100% DMSO. The plate was then placed into the Cytofluor 4000 instrument which had been set to 340 nm excitation/490 emission, automatic mode for 21 cycles and the plate read in a kinetic mode. EC50 determinations were carried out as described for the IC50 determinations.
Cells were lyzed using the Rneasy kit (Qiagen). […] All primers were designed with ABI Prism 7700 software and obtained from Biosearch Technologies, Novato, Calif. Samples containing known concentrations of HCV RNA transcript were run as standards. Using the following cycling protocol (50° C., 30 min; 95° C., 5 min; 40 cycles of 95° C., 15 sec, 60° C., 1 min), HCV RNA expression was quantitated as described in the Perkin Elmer manual using the ABI Prism 7700 Sequence Detector.

[3] = NS3/4A BMS strain; read-out: IC50 range
[4] = Huh-7, HCV replicon, Huh7 cells, read-out: EC50 range

SMILES | pIC50 [1, 3] | pEC50 [2, 4] | pIC50 ([1]; read-out: IC50 range; NS3/4A BMS strain) | pEC50 ([2]; Huh-7, read-out: EC50 range)
C=C[C@@H]1C[C@]1(NC(=O)[C@@H]1C[C@@H](Oc2nccc3cc(OC)ccc23)CN1C(=O)[C@@H](NC(=O)OC)C(C)(C)C)C(=O)NS(=O)(=O)C1CC1 [Compound 16] | > 7.00 | 6.00 to 7.00 |  | 
C=C[C@@H]1C[C@]1(NC(=O)[C@@H]1C[C@@H](Oc2nccc3cc(OC)ccc23)CN1C(=O)[C@@H](NC(=O)OC(C)C)C(C)(C)C)C(=O)NS(=O)(=O)C1CC1 [Compound 17] | > 7.00 | > 7.00 |  | 
C=C[C@@H]1C[C@]1(NC(=O)[C@@H]1C[C@@H](Oc2nccc3cc(OC)ccc23)CN1C(=O)[C@@H](NC(=O)OCC(C)(C)C)C(C)(C)C)C(=O)NS(=O)(=O)C1CC1 [Compound 18] | > 7.00 | > 7.00 |  | 
C=C[C@@H]1C[C@]1(NC(=O)[C@@H]1C[C@@H](Oc2nccc3cc(OC)ccc23)CN1C(=O)[C@@H](NC(=O)O[C@H]1CCOC1)C(C)(C)C)C(=O)NS(=O)(=O)C1CC1 [Compound 19] | > 7.00 | > 7.00 |  | 
C=C[C@@H]1C[C@]1(NC(=O)[C@@H]1C[C@@H](Oc2nccc3cc(Cl)ccc23)CN1C(=O)[C@@H](NC(=O)OC(C)(C)C)C(C)(C)C)C(=O)NS(=O)(=O)C1CC1 [Compound 20] | > 7.00 | 6.00 to 7.00 |  | 
C=C[C@@H]1C[C@]1(NC(=O)[C@@H]1C[C@@H](Oc2nccc3cc(-n4cccn4)ccc23)CN1C(=O)[C@@H](NC(=O)OC(C)(C)C)C(C)(C)C)C(=O)NS(=O)(=O)C1CC1 [Compound 21] | > 7.00 | > 7.00 |  | 
C=C[C@@H]1C[C@]1(NC(=O)[C@@H]1C[C@@H](Oc2nccc3cc(Br)ccc23)CN1C(=O)[C@@H](NC(=O)OC(C)(C)C)C(C)(C)C)C(=O)NS(=O)(=O)C1CC1 [Compound 22] | > 7.00 | 6.00 to 7.00 |  | 
C=C[C@@H]1C[C@]1(NC(=O)[C@@H]1C[C@@H](Oc2nccc3ccccc23)CN1C(=O)[C@@H](NC(=O)OC(C)(C)C)C(C)(C)C)C(=O)NS(=O)(=O)C1CC1 [Compound 23] | > 7.00 | > 7.00 |  | 
C=C[C@@H]1C[C@]1(NC(=O)[C@@H]1C[C@@H](Oc2nc(Cl)cc3ccccc23)CN1C(=O)[C@@H](NC(=O)OC(C)(C)C)C(C)(C)C)C(=O)NS(=O)(=O)C1CC1 [Compound 24] | > 7.00 | > 7.00 |  | 
C=C[C@@H]1C[C@]1(NC(=O)[C@@H]1C[C@@H](Oc2nc(-c3ccccc3)cc3ccccc23)CN1C(=O)[C@@H](NC(=O)OC(C)(C)C)C(C)(C)C)C(=O)NS(=O)(=O)C1CC1 [Compound 25] | > 7.00 | > 7.00 |  | 
C=C[C@@H]1C[C@]1(NC(=O)[C@@H]1C[C@@H](Oc2nc(-c3ccc(OC)cc3)cc3ccccc23)CN1C(=O)[C@@H](NC(=O)OC(C)(C)C)C(C)(C)C)C(=O)NS(=O)(=O)C1CC1 [Compound 26] | > 7.00 | > 7.00 |  | 
C=C[C@@H]1C[C@]1(NC(=O)[C@@H]1C[C@@H](Oc2nc(-c3ccncc3)cc3ccccc23)CN1C(=O)[C@@H](NC(=O)OC(C)(C)C)C(C)(C)C)C(=O)NS(=O)(=O)C1CC1 [Compound 27] | > 7.00 | > 7.00 |  | 
C=C[C@@H]1C[C@]1(NC(=O)[C@@H]1C[C@@H](Oc2nc(-c3ccc(N(C)C)cc3)cc3ccccc23)CN1C(=O)[C@@H](NC(=O)OC(C)(C)C)C(C)(C)C)C(=O)NS(=O)(=O)C1CC1 [Compound 28] | > 7.00 | > 7.00 |  | 
C=C[C@@H]1C[C@]1(NC(=O)[C@@H]1C[C@@H](Oc2nc(-c3ccc(C#N)cc3)cc3ccccc23)CN1C(=O)[C@@H](NC(=O)OC(C)(C)C)C(C)(C)C)C(=O)NS(=O)(=O)C1CC1 [Compound 29] | > 7.00 | > 7.00 |  | 
C=C[C@@H]1C[C@]1(NC(=O)[C@@H]1C[C@@H](Oc2nc(-c3ccoc3)cc3ccccc23)CN1C(=O)[C@@H](NC(=O)OC(C)(C)C)C(C)(C)C)C(=O)NS(=O)(=O)C1CC1 [Compound 30] | > 7.00 | > 7.00 |  | 
C=C[C@@H]1C[C@]1(NC(=O)[C@@H]1C[C@@H](Oc2nc(-c3cnccn3)cc3ccccc23)CN1C(=O)[C@@H](NC(=O)OC(C)(C)C)C(C)(C)C)C(=O)NS(=O)(=O)C1CC1 [Compound 31] | > 7.00 | > 7.00 |  | 
C=C[C@@H]1C[C@]1(NC(=O)[C@@H]1C[C@@H](Oc2nc(C#N)cc3ccccc23)CN1C(=O)[C@@H](NC(=O)OC(C)(C)C)C(C)(C)C)C(=O)NS(=O)(=O)C1CC1 [Compound 32] | > 7.00 | > 7.00 |  | 
C=C[C@@H]1C[C@]1(NC(=O)[C@@H]1C[C@@H](Oc2nc(C)cc3ccccc23)CN1C(=O)[C@@H](NC(=O)OC(C)(C)C)C(C)(C)C)C(=O)NS(=O)(=O)C1CC1 [Compound 33] | > 7.00 | > 7.00 |  | 
C=C[C@@H]1C[C@]1(NC(=O)[C@@H]1C[C@@H](Oc2nc(OC)cc3ccccc23)CN1C(=O)[C@@H](NC(=O)OC(C)(C)C)C(C)(C)C)C(=O)NS(=O)(=O)C1CC1 [Compound 35] | > 7.00 | > 7.00 |  | 
C=C[C@@H]1C[C@]1(NC(=O)[C@@H]1C[C@@H](Oc2nc(-c3ccccc3)cc3cc(OC)ccc23)CN1C(=O)[C@@H](NC(=O)OC(C)(C)C)C(C)(C)C)C(=O)NS(=O)(=O)C1CC1 [Compound 36] |  |  | > 7.00 | > 7.00
C=C[C@@H]1C[C@]1(NC(=O)[C@@H]1C[C@@H](Oc2nc(-c3nccs3)cc3cc(OC)ccc23)CN1C(=O)[C@@H](NC(=O)OC(C)(C)C)C(C)(C)C)C(=O)NS(=O)(=O)C1CC1 [Compound 37] | > 7.00 | > 7.00 |  | 
C=C[C@@H]1C[C@]1(NC(=O)[C@@H]1C[C@@H](Oc2nc(-c3cc(OC)no3)cc3cc(OC)ccc23)CN1C(=O)[C@@H](NC(=O)OC(C)(C)C)C(C)(C)C)C(=O)NS(=O)(=O)C1CC1 [Compound 38] | > 7.00 | > 7.00 |  | 
